The source of these data is ChEMBL document CHEMBL3301546, “MMV Malaria Box yeast growth screening”.

Type in all cases: functional
Assay [1] relates to Saccharomyces cerevisiae. Briefly: MMV: Growth assays were conducted using the prototrophic S. cerevisiae strain JHY222. Each MMV compound (0.1 mM) was tested in minimal media containing ethanol and glycerol as carbon sources (Yeast Nitrogen Base, Ethanol, Glycerol; YNBEG). The growth rate in the presence of each MMV compound was calculated as follows: (i) the first 10 OD readings were averaged and subtracted from all OD readings of the corresponding curve to set the baseline of the growth curve to zero, and (ii) the area under the curve (AUC) was then calculated as the sum of all OD readings. […] A relative growth value was calculated as follows: AUC(DRUG) - AUC(DMSO)/AUC(DMSO); where AUC(DMSO) represents growth measured in a DMSO control well that was on the same microtiter plate of the drug-treated culture.

The test system of assay [2] is Saccharomyces cerevisiae. Briefly: (§1) MMV: Growth assays were conducted using the prototrophic S. cerevisiae strain JHY222. Each MMV compound (0.1 mM) was tested in minimal media containing dextrose as a carbon source (Yeast Nitrogen Base, Dextrose; YNBD). The growth rate in the presence of each MMV compound was calculated as follows: (i) the first 10 OD readings were averaged and subtracted from all OD readings of the corresponding curve to set the baseline of the growth curve to zero, and (ii) the area under the curve (AUC) was then calculated as the sum of all OD readings. […] A relative growth value was calculated as follows: AUC(DRUG) - AUC(DMSO)/AUC(DMSO); where AUC(DMSO) represents growth measured in a DMSO control well that was on the same microtiter plate of the drug-treated culture.

Assay [3] relates to Saccharomyces cerevisiae. The assay is described as §1, with “rich” for “minimal”, “Extract, Peptone,” for “Nitrogen Base,”, “YPD).” for “YNBD).”.

As for `CC(=O)Nc1nnc(SCc2c(C)cc(C(C)(C)C)cc2C)s1`, the “Relative Growth” value was 0.0163 in assay [1], 0.0621 in assay [2] and 0.0168 in assay [3].

Take `OC(Cn1nnc2ccccc21)Cn1c2ccc(Br)cc2c2cc(Br)ccc21` (configuration not stated): the results for the “Relative Growth” value in assay [1], in assay [2] and in assay [3] were 0.1229, 0.0887 and 0.0859, respectively.

As to `COc1ccc2c(c1OC)C(=O)N1c3ccccc3N=C(c3ccc(C)cc3)CC21` (configuration not stated), the “Relative Growth” value in assay [1] is on record as -1.0982; in assay [2], -1.0612; in assay [3] it was -0.0173.

Turning to `COc1cc(C(=O)Nc2nc3c(cc4c5c(cccc53)CC4)s2)cc(OC)c1OC`, the “Relative Growth” value in assay [1] is -0.0592; in assay [2], -0.1254; in assay [3], 0.0021.

In the case of `CCOC(=O)c1cnc2c(C)cc(C)cc2c1Nc1ccc(OC)c(OC)c1`, the “Relative Growth” value in assay [1] is given as -0.222; in assay [2] it was 0.0948; in assay [3] it was -0.1039.

`COc1ccc(C(C)=O)cc1N1C(=O)C2C(C1=O)C1(c3ccccc3)C(=O)C2(c2ccccc2)C(c2ccc(C)cc2)=C1c1ccc(C)cc1` (configuration not stated): the results for the “Relative Growth” value in assay [1], in assay [2] and in assay [3] were 0.0688, -0.0144 and -0.992, respectively.

Consider `c1ccc(/C2=N/c3ccccc3/N=C(/c3ccccc3)c3ccccc32)cc1`, for which the results for the “Relative Growth” value in assay [1], in assay [2] and in assay [3] were -0.1082, -0.0429 and -0.0437, respectively.

For `COc1cccc(-c2nn(C)c3sc(C(=O)NCCN4CCN(c5ccccc5F)CC4)cc23)c1`, the results for the “Relative Growth” value in assay [1], in assay [2] and in assay [3] were 0.0691, -0.0156 and 0.1401, respectively.

As for `O=C(Nc1ccc(Cl)cc1C(=O)Nc1ccncc1)c1ccc(Cl)cc1Cl`, the figures for the “Relative Growth” value in assay [1], in assay [2] and in assay [3] were -0.1824, 0.0109 and 0.0512, respectively.

For the molecule `CCCCCCn1c(=N)n(CC(O)COc2cccc(C)c2)c2ccccc21.Cl` (configuration not stated), the entries for the “Relative Growth” value in assay [1], in assay [2] and in assay [3] were -0.0105, -0.1558 and -0.051, respectively.

Take `Cc1sc2ncnc(Sc3nc4ccccc4[nH]3)c2c1C`: the “Relative Growth” value in assay [1] is 0.0545; in assay [2], 0.0477; in assay [3] it was 0.0241.

For the molecule `Cc1ccc(Nc2nc(-c3ccccn3)cs2)cc1`, the “Relative Growth” value is on record as 0.1504 in assay [1], 0.0898 in assay [2] and 0.0194 in assay [3].

Consider `COc1ccc(-c2nonc2NC(=O)c2cccc(Cl)c2)cc1OC`, for which the “Relative Growth” value is given as 0.0561 in assay [1], 0.1832 in assay [2] and -0.028 in assay [3].

For `Cc1ccccc1OCCSc1nc2ccc(NC(=O)c3ccccc3)cc2s1`, the “Relative Growth” value in assay [1] is given as -0.0554; in assay [2], -0.1178; in assay [3] it was -0.3917.

Regarding `O=C(Nc1nc(-c2ccccn2)cs1)c1ccccc1Br`, the “Relative Growth” value in assay [1] is listed as 0.1503; in assay [2], -0.0666; in assay [3], 0.0205.

On to `CCCCCCc1cc(O)c2c3c(c(=O)oc2c1)CCC(C)C3` (configuration not stated), for which the “Relative Growth” value in assay [1] is on record as -0.0677; in assay [2], -0.0738; in assay [3] it was -0.0517.

Consider `COc1ccc(/C=C2/SC(=Nc3ccccc3)NC2=O)cc1`, for which the “Relative Growth” value in assay [1] is recorded as -0.9641; in assay [2], -0.223; in assay [3], -0.1491.

With `OC(CNC1CCCC1)Cn1c2ccccc2c2ccccc21` (configuration not stated), the “Relative Growth” value in assay [1] was -0.0741; in assay [2], -0.142; in assay [3], -0.0524.

For `Nc1ccc(-c2nc3cc(Oc4ccc(Oc5ccc6[nH]c(-c7ccc(N)cc7)nc6c5)cc4)ccc3[nH]2)cc1`, the “Relative Growth” value in assay [1] is reported as -0.1502; in assay [2], 0.0002; in assay [3], -0.9892.

In the case of `CN(C)CCCNc1c2ccccc2nc2ccccc12`, the “Relative Growth” value in assay [1] is on record as 0.0887; in assay [2] it was -0.0065; in assay [3] it was 0.0036.

In the case of `CCN(Cc1ccccc1)C1CCN(Cc2cc(Br)ccc2O)CC1.O=C(O)C(=O)O`, the “Relative Growth” value is 0.0185 in assay [1], 0.0515 in assay [2] and -0.0428 in assay [3].

In the case of `CCOC(=O)c1c(NC(=O)c2ccccc2)sc2c(O)c(CN(CC)CC)ccc12`, the “Relative Growth” value in assay [1] is 0.1716; in assay [2], 0.0832; in assay [3] it was -0.0008.

For `CCOc1cc2c(cc1OCC)C(c1cc(C)c(O)c(C)c1)NCC2.Cl` (configuration not stated), the “Relative Growth” value in assay [1] was -0.7495; in assay [2], -0.1636; in assay [3], -0.1843.

Turning to `Cc1cc(NCCN2CCCCC2)c2ccc3ccccc3c2n1`, the “Relative Growth” value in assay [1] was 0.1901; in assay [2] it was 0.1405; in assay [3] it was 0.101.

Turning to `c1ccc(-c2ccc(-c3nc4ccccc4[nH]3)cc2)cc1`, the figures for the “Relative Growth” value in assay [1], in assay [2] and in assay [3] were 0.0562, -0.0469 and -0.0154, respectively.

For the molecule `CCOC(=O)C1(Cc2ccccc2)CCN(Cc2cccc(OC)c2O)CC1`, the “Relative Growth” value in assay [1] is reported as -0.0203; in assay [2], -0.0215; in assay [3] it was -0.0248.

For `O=C(NCCCN1CCC(N2CCCCC2)CC1)C1=Cc2cc(Br)ccc2OC1`, the figures for the “Relative Growth” value in assay [1], in assay [2] and in assay [3] were -0.1063, -0.0044 and -0.0702, respectively.

For the molecule `O=C(Cc1ccccc1)NC(c1ccc(Cl)cc1)c1c(O)ccc2ccccc12` (configuration not stated), the “Relative Growth” value in assay [1] is reported as 0.0388; in assay [2], -0.1217; in assay [3] it was 0.0198.

For `Cc1cc(C)c2nc(N3CCC(C(=O)NCCCN4CCC(N5CCCCC5)CC4)CC3)sc2c1`, the “Relative Growth” value was -0.0414 in assay [1], -0.0696 in assay [2] and -0.0409 in assay [3].

For `Cc1cccc(N2C(=O)C3C(C2=O)C2(c4ccccc4)C(=O)C3(c3ccccc3)C(c3ccc4c(c3)OCO4)=C2c2ccc3c(c2)OCO3)c1` (configuration not stated), the results for the “Relative Growth” value in assay [1], in assay [2] and in assay [3] were -0.1627, -0.0077 and -0.0089, respectively.

As to `CCOC(=O)c1ccc2nc(-c3ccccc3)cc(O)c2c1`, the “Relative Growth” value in assay [1] is recorded as 0.0616; in assay [2] it was 0.1214; in assay [3], -0.0952.

For `CC1CC2=C(CC1CNCCCN(C)C)C(C)(C)CCC2` (configuration not stated), the results for the “Relative Growth” value in assay [1], in assay [2] and in assay [3] were -0.1687, 0.0086 and 0.0011, respectively.

On to `Cc1ccc(NC(=O)Nc2cccc(Cl)c2)cc1F`, for which the “Relative Growth” value was 0.0189 in assay [1], 0.0155 in assay [2] and -0.0033 in assay [3].

In the case of `COc1ccc2nc(N)nc(C)c2c1`, the “Relative Growth” value is -0.0106 in assay [1], 0.0302 in assay [2] and -0.0479 in assay [3].

Consider `Cc1ccc(S(=O)(=O)c2c(COC(=O)c3cccc(C)c3)c(-c3ccccc3)nn2C)cc1`, for which the figures for the “Relative Growth” value in assay [1], in assay [2] and in assay [3] were -0.0042, -0.0588 and 0.0124, respectively.

For `COc1ccc(NC(=O)C2c3ccccc3C(=O)N(CC(C)C)C2c2cccs2)cc1` (configuration not stated), the “Relative Growth” value in assay [1] is reported as -0.1656; in assay [2] it was 0.0442; in assay [3] it was -0.1052.

On to `CCCC(c1nnnn1C1CCCCC1)N1CCN(C(=O)c2ccco2)CC1.Cl` (configuration not stated), for which the figures for the “Relative Growth” value in assay [1], in assay [2] and in assay [3] were 0.0167, 0.0714 and -0.0604, respectively.

Turning to `CCOC(=O)c1c[nH]c2c(CC)cccc2c1=O`, the “Relative Growth” value in assay [1] was -0.0989; in assay [2], -0.1466; in assay [3], -0.0665.

With `Cc1ccc(C2CC(C(F)(F)F)n3nc(C(=O)N4CCN(C(c5ccccc5)c5ccccc5)CC4)cc3N2)cc1` (configuration not stated), the “Relative Growth” value in assay [1] is given as -0.019; in assay [2] it was -0.1134; in assay [3], 0.0315.

As to `O=C1c2ccc3c4c(ccc(c24)C(=O)N1CCCCO)C(=O)N(CCCCO)C3=O`, the “Relative Growth” value in assay [1] is listed as -1.0287; in assay [2], -0.7093; in assay [3], -0.136.

`COc1ccc(NC(=O)C2c3ccccc3C(=O)N(CC(C)C)C2c2cccs2)cc1Cl` (configuration not stated): the “Relative Growth” value in assay [1] is reported as -0.0036; in assay [2], 0.0154; in assay [3] it was -0.1808.

In the case of `O=C(O)C(=O)O.Oc1ccccc1CN1CCN(C(c2ccccc2)c2ccccc2)CC1`, the “Relative Growth” value is given as 0.0338 in assay [1], 0.1461 in assay [2] and -0.1402 in assay [3].

As to `CSc1ccccc1C(=O)Nc1nc(-c2ccccn2)cs1`, the “Relative Growth” value in assay [1] is -0.2282; in assay [2] it was -0.0928; in assay [3] it was -0.0643.

In the case of `CC(=O)NCCc1nc2ccccc2n1Cc1ccc(C(C)C)cc1`, the “Relative Growth” value is recorded as 0.1937 in assay [1], -0.0851 in assay [2] and 0.0716 in assay [3].
